Results from PMC8791944, “GLUT3 inhibitor discovery through in silico ligand screening and in vivo validation in eukaryotic expression systems” (Scientific Reports, 2022).
Where two headings read alike, the source gives them in different places.

Biological target: T1, GLUT2∆loopS_Q455R (Homo sapiens, UniProt P11168, Q455R, form not given)
T1 sequence (P11168 1-524 Q455R): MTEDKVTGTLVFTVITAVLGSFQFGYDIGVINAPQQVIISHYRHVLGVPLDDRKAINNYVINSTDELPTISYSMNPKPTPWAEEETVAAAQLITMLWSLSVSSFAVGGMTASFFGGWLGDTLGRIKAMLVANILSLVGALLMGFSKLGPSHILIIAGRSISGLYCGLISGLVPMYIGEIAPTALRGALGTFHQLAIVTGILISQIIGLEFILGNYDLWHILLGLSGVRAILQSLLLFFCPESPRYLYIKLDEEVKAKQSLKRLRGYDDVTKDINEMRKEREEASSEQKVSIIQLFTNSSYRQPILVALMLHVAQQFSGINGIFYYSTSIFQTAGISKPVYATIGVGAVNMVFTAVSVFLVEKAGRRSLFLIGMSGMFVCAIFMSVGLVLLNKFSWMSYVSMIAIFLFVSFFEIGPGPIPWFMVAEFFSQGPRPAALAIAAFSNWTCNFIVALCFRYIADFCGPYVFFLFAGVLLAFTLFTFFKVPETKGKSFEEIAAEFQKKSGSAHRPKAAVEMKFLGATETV
Assay: Glucose transport assay, GLUT2∆loopS_Q455R expressed in hxt^0 yeast cells EBY.S7
Assay type: cell-based
Description: The most studied GLUTs are Class 1 GLUTs (GLUT1-4) and a Class 2 GLUT, GLUT5 (a fructose-only transporter). GLUT3 sequence homology and identity is 79% and 64%, 71% and 52%, 74% and 57%, and 60% and 38% with GLUT1, GLUT2, GLUT4, and GLUT5, respectively. The hxt^0 yeast cell systems expressing functional GLUT1-4[65],[69] and GLUT5[66] allow us to determine the in vivo transport activity (substrate uptake by a GLUT into whole cells) for individual GLUTs and establish GLUT3 inhibitor selectivity for these transporters. The transport assay was performed as described for GLUT3, but at the substrate concentrations that correspond to the KM for each GLUT (i.e., 5 mM glucose for GLUT1 and GLUT4[65], 15 mM glucose for GLUT2∆loopS_Q455R[63], and 10 mM fructose for GLUT5S72Y[66]).
The transport activity was assayed as the substrate uptake in hexose transporter-deficient yeast cells expressing functional GLUT1[65], GLUT2[69], GLUT4[65], or GLUT5[66]. Substrate final concentration in the assay matched the corresponding substrate KM and was 5 mM glucose for GLUT1 and GLUT4, 15 mM glucose for GLUT2∆loopS_Q455R, and 10 mM fructose for GLUT5S72Y. Transport assay was initiated by the addition of C^14-labeled substrate and stopped after 10 min (see “Materials and methods” for details). […] Standard deviations for experimental points come from at least three independent measurements.
The plasmids containing functional constructs of GLUT1-5 were transformed in the corresponding hxt^0 strains[65],[66],[73] (EBY.VW4000 for GLUT5S72Y, EBY.S7 for GLUT1, GLUT2∆loopS_Q455R, GLUT3 and GLUT3S66Y, and SDY.022 for GLUT4) and grown on 2% (w/v) agar plates of the respective media supplemented with 1% (w/v) maltose. An initial culture of ~ 10 ml was started with a few colonies and grown for 2–3 days if the media was SC-uracil with 1% (w/v) maltose (GLUT1, GLUT3, GLUT4) or 1–2 days if the media was YEP with 1% (w/v) maltose and 100 µg/ml geneticin G418 (GLUT2∆loopS_Q455R and GLUT5S72Y). Cells were washed once in the corresponding media in which maltose was substituted with 0.1–2% hexose substrate for the expressing GLUT (i.e., SC-uracil, 2% (w/v) glucose for GLUT1; SC-uracil, 0.2% (w/v/) glucose for GLUT3 and GLUT4; YEP, 0.2% (w/v) glucose, 100 µg/ml geneticin G418 for GLUT2∆loopS_Q455R, and YEP, 2% (w/v) fructose for GLUT5 S72Y). Then, cells were transferred in the same media so that OD600nm ~ 0.5 and grown further for 1–2 days.
For transport activity assay, cells in the hexose media were centrifuged (1000×g, 5 min, room temperature), washed once with PBS buffer (10 mM Na2HPO4, 1.8 mM KH2PO4, 2.7 mM KCl, 137 mM NaCl, pH 7.4), and resuspended in PBS buffer at an OD600nm ~ 10; each assay contained 100 µl of this cell solution. Transport activity assay was started by adding C^14-hexose at a substrate concentration corresponding to the respective KM (5 mM glucose for GLUT1 or GLUT4, 3 mM glucose for GLUT3 or 1.5 mM glucose for GLUT3S66Y, 15 mM glucose for GLUT2∆loopS_Q455R, and 10 mM fructose for GLUT5S72Y); for determining the glucose KM in GLUT3 and GLUT3S66Y, substrate concentrations were varied accordingly. […] The filtration membranes were transferred into scintillation vials with 10 ml of Scintillation Solution (BioSafeII; Research Products International, Mount Prospect, IL, USA), and vortexed briefly. The radioactivity was determined with a scintillation counter (Tri-carb 2900TR, Perkin Elmer, USA).

[1] = GLUT2∆loopS_Q455R in hxt^0 yeast cells, 15 mM glucose; read-out: IC50 for GLUT2 transport inhibition

| SMILES | IC50 [1] [µM] | Potency for GLUT2 relative to GLUT3 (IC50 ratio, weaker for GLUT2) (IC50 GLUT2 versus IC50 GLUT3) | IC50 (read-out: IC50 for GLUT2 transport inhibition; GLUT2∆loopS_Q455R in hxt^0 yeast cells, 15 mM glucose) [µM] |
| --- | --- | --- | --- |
| CC(=O)Nc1ccc(S(=O)(=O)Nc2ccc(Nc3cc(N(C)C)nc(C)n3)cc2)cc1 [G3iA, N-(4-{[(4-{[6-(dimethylamino)-2-methylpyrimidin-4-yl]amino}phenyl)amino]sulfonyl}phenyl)acetamide] | 29.4 ± 6.3 | ~ fourfold | – |
| COc1ccccc1-n1c(/C=C/c2ccc(O)cc2)nc2ccc(Br)cc2c1=O [G3iB, 6-bromo-2-[(E)-2-(4-hydroxyphenyl)ethenyl]-3-(2-methoxyphenyl)quinazolin-4(3H)-one] | – | – | > 50 |
| Cc1cccnc1OC1CCN(c2cc(N3CCCC3CO)ncn2)CC1 (stereo not shown) [G3iC] | > 50 | – | – |
| Cc1cc(NC(=O)CCC2Cc3ccccc3NC2=O)nc(-c2ccccc2)n1 (stereo not shown) [G3iD] | 40 ± 3.7 | – | – |
| O=C(Nc1cccc(Cl)c1)c1cccc(NC(=O)c2cccc([N+](=O)[O-])c2)c1 [G3iE, N-{3-[(3-chloroanilino)carbonyl]phenyl}-3-nitrobenzamide] | > 50 | – | – |
| Cc1ccccc1CN(Cc1nnc(C(C)(C)C)o1)c1ccc2nc(O)[nH]c2c1 [G3iF] | 24.7 ± 8.4 | – | – |
